pIC50: −log10 of the molar value.
Assays:
[1] = system: ovarian cancer cells (PA-1); assay: Cancer cell line growth inhibition, Sulforhodamine B assay, PA-1; assay type: cell-based; conditions: 120 h; Table 2; PA-1, 5 days, SRB; read-out: Cancer Cell Line GI50 Range PA-1
Outline: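 PA-1 ovarian cancer cells seeded 24 h before compound, then exposed to final 10 nM to 50 μM in DMEM/10% FBS for 5 days. Cell mass measured by TCA fixation and sulforhodamine B staining, absorbance 570 nm; GI50 derived from growth inhibition relative to DMSO-treated cells.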

[2] = system: Ovarian 2393A tumor initiating cells; assay: Tumor-initiating cell growth inhibition, Alamar Blue assay, ovarian TICs; assay type: cell-based; conditions: 144 h; Table 2; ovarian TICs, 6 days, Alamar Blue; read-out: Tumor Initiating Cell GI50 Range Ovarian 2393A
Outline: (§1)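 Colon TICs (4,000/well, non-TC plates) and ovarian TICs (1,000/well, TC plates) kept in serum-free DMEM:F12 with B-27, heparin, bFGF and EGF. Compound added after 24 h at 0.1% DMSO, then 9 days (colon) or 6 days (ovarian) at 37° C. GI50 from Alamar Blue fluorescence (ex 544/em 590) after 4 h.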

[3] = system: Colon 12 tumor initiating cells; assay: Tumor-initiating cell growth inhibition, Alamar Blue assay, colon TICs; assay type: cell-based; conditions: 216 h; Table 2; colon TICs, 9 days, Alamar Blue; read-out: Tumor Initiating Cell GI50 Range Colon 12
Outline: as §1

[4] = system: breast cancer cells (MDA-MB-231); assay: Cancer cell line growth inhibition, Sulforhodamine B assay, MDA-MB-231; assay type: cell-based; conditions: Homo sapiens, 120 h; Table 2; MDA-MB-231, 5 days, SRB; read-out: Cancer Cell Line GI50 Range MDA-MB-231
Experimental: Breast cancer cells (MDA-MB-231 and MDA-MB-468), colon cancer cells (HCT116) and ovarian cancer cells (PA-1 and OVCAR-3) were seeded (1000 to 4000 in 80 μl per well depending on the cell growth rate) into 96 well plates 24 hours before compound overlay. Compounds were prepared as 10 mM stock solutions in 100% DMSO which were diluted with DMEM (Dulbecco's Modified Eagle's Medium) cell growth Medium (Invitrogen, Burlington, ON, Canada) containing 10% FBS (Fetal Bovine Serum) to concentrations ranging from 50 nM to 250 μM. Aliquots (20 μl) from each concentration were overlaid to 80 μl of the pre-seeded cells in the 96 well plates to make final concentrations of 10 nM to 50 μM. The cells were cultured for 5 days before the Sulforhodamine B assay (SRB) was performed to determine the compound's cell growth inhibition activity.
Sulforhodamine B (purchased from Sigma, Oakville, ON, Canada) is a water-soluble dye that binds to the basic amino acids of the cellular proteins. Thus, colorimetric measurement of the bound dye provides an estimate of the total protein mass that is related to the cell number. the cells are fixed in situ by gently aspirating off the culture media and adding 50 μl ice cold 10% Trichloroacetic Acid (TCA) per well and incubate at 4° C. for 30-60 min, The plates are washed with H2O five times and allowed to air dry for 5 min. Addition of 50 μl 0.4% (w/v) SRB solution in 1% (v/v) acetic acid to each well and incubation for 30 min at RT completes the staining reaction. Following staining, plates are washed four times with 1% acetic acid to remove unbound dye and then allowed to air dry for 5 min. The stain is solubilized with 100 μl of 10 mM Tris pH 10.5 per well. Absorbance is read at 570 nm.
The percentage (%) of relative growth inhibition was calculated by comparing to DMSO treated only cells (100%). GI50's were determined for compounds with cytotoxic activity. The GI50 was calculated using GraphPad PRISM software (GraphPad Software, Inc., San Diego, Calif., USA).
In Table 2 below, GI50 value ranges for compound examples against breast cancer cell lines (MDA-MB-231), colon cancer cell lines (HCT116) and ovarian cancer cell lines (PA-1) are given.

[5] = target: T1, human TTK (Homo sapiens, UniProt P33981); assay: TTK inhibition assay (indirect ELISA); assay type: biochemical; conditions: Table 2; 16 μM ATP (asterisk); read-out: TTK IC50 Range
T1 construct: Active TTK was purchased from Invitrogen as an amino terminal GST fusion of full length human TTK; purchased Invitrogen
T1 sequence (P33981 1-857): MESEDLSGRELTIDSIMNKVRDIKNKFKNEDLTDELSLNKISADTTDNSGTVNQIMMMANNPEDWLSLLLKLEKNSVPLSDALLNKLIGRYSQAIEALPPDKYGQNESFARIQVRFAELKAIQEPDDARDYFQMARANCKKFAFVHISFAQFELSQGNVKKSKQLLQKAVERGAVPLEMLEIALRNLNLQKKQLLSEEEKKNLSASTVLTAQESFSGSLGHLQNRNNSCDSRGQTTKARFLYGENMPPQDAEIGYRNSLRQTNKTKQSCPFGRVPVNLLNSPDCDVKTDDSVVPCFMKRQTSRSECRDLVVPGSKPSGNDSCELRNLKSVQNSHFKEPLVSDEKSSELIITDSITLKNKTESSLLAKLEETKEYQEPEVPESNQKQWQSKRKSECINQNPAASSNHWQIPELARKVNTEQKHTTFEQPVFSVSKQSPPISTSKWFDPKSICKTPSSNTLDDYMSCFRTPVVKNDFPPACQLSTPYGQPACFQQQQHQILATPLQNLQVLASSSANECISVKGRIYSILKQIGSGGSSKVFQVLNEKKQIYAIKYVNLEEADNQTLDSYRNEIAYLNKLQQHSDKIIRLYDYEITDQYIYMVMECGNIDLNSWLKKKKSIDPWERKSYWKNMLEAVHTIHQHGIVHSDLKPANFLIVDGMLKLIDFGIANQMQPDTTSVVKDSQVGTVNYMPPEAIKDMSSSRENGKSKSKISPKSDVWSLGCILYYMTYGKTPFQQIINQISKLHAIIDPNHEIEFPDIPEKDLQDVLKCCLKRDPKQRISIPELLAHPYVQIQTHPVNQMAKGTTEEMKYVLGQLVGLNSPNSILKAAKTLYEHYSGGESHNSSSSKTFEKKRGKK
Outline: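 Activity detected by indirect ELISA after compounds sat with full-length GST-TTK for 5 min prior to starting the reaction with ATP. IC50 came from a four-parameter logistic curve of % inhibition, calculated against background and uninhibited control wells.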

[6] = system: colon cancer cells (HCT116); assay: Cancer cell line growth inhibition, Sulforhodamine B assay, HCT116; assay type: cell-based; conditions: Homo sapiens, HCT-116, 120 h, Table 2; HCT116, 5 days, SRB; read-out: Cancer Cell Line GI50 Range HCT116
Outline: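 GI50 is calculated from growth inhibition relative to DMSO controls, using TCA-fixed, SRB-stained protein mass read at 570 nm. Compound, 10 nM–50 μM final in 10% FBS DMEM, was applied for 5 days to HCT116 cells that had been plated 24 h before at 1000–4000/well.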

- GI50 [1]: ≤ 100 nM
- GI50 [2]: ≤ 100 nM
- GI50 [3]: ≤ 100 nM
- GI50 [4]: ≤ 100 nM
- pIC50 [5]: > 7.00
- GI50 [6]: ≤ 100 nM
SMILES: Cc1cc(-c2cnn3c(NCCC4CCOCC4)cc(Oc4ccccc4)nc23)ccc1C(=O)NC1CC1 [Example B20, N-cyclopropyl-2-methyl-4-(5-phenoxy-7-((2-(tetrahydro-2H-pyran-4-yl)ethyl)amino)pyrazolo[1,5-a]pyrimidin-3-yl)benzamide]
